Data from patent publication US20260345619A1 (Principia Biopharma Inc., priority 2023, published 2026).

Assay: Asthma Quality of Life Questionnaire with Standardized Activities (AQLQ(S))
Type: in vivo, human
Conditions: for AQLQ global score responders at Week 12, number / AQLQ global score responders at Week 12, percentage: improvement ≥0.5 from baseline
From the text: The AQLQ(S) is a self-administered patient reported outcome to measure the functional impairments that are most troublesome to adolescents and adults ≥12 years of age as a result of their asthma.
Asthma Quality of Life Questionnaire with Standardized Activities (AQLQ(S)) self-administered (≥12 years)
The AQLQ(S) was designed as a self-administered patient reported outcome to measure the functional impairments that are most troublesome to adolescents and adults ≥12 years of age as a result of their asthma. The instrument is comprised of 32 items, each rated on a 7-point Likert scales from 1 to 7. The AQLQ(S) has 4 domains. The domains and the number of items in each domain are as follows: • Symptoms (12 items) • Activity limitation (11 items) • Emotional function (5 items) • Environmental stimuli (4 items)
A global score is calculated ranging from 1 to 7 and a score by domain. Higher scores indicate better quality of life. […] Patients were to complete the questionnaire in an electronic diary during on-site visits.
Secondary endpoints included pre-bronchodilator FEV1 change from baseline at EOT, ACQ-5 score change from baseline, and AQLQ score change from baseline. Other secondary and exploratory endpoints are described in Table 2.

[1] = 400 mg BID, observed/LOCF imputed, n=29, mITT
[2] = 400 mg TID, observed/LOCF imputed, n=53, mITT

CC(C)(C=C(C#N)C(=O)N1CCC[C@@H](n2nc(-c3ccc(Oc4ccccc4)cc3F)c3c(N)ncnc32)C1)N1CCN(C2COC2)CC1 (mixture of isomers) [rilzabrutinib, (R)-2-[3-[4-amino-3-(2-fluoro-4-phenoxy-phenyl)pyrazolo[3,4-d]pyrimidin-1-yl]piperidine-1-carbonyl]-4-methyl-4-[4-(oxetan-3-yl)piperazin-1-yl]pent-2-enenitrile]
AQLQ global score responder analysis at Week 12, OR vs. placebo (95% CI) (400 mg BID, 95% CI 1.19, 20.17, mITT): 4.89 | AQLQ global score responders (including multiply imputed) at Week 12, number (400 mg BID, N=32, mITT): 16.6 | AQLQ global score responders (including multiply imputed) at Week 12, percentage (400 mg BID, N=32, mITT): (51.7) | AQLQ global score responders at Week 12, number [1]: 15 | AQLQ global score responders at Week 12, percentage [1]: (51.7) (14/1) % | AQLQ global score change from baseline at Week 12, LS Mean Diff vs. placebo (400 mg BID, mITT, 1 asthma exacerbation within 2 years): 0.75 | AQLQ global score change from baseline at Week 12, LS Mean Diff vs. placebo (400 mg BID, mITT, 2 asthma exacerbations within 2 years): 0.61 | AQLQ global score change from baseline at Week 12, LS Mean Diff vs. placebo (400 mg BID, mITT, >2 asthma exacerbations within 2 years): 1.18 | AQLQ global score change from baseline at Week 12, LS Mean Diff vs. placebo (400 mg BID, mITT, Eastern Europe): 0.08 | AQLQ global score change from baseline at Week 12, LS Mean Diff vs. placebo (400 mg BID, mITT, Latin America): 0.87 | AQLQ global score change from baseline at Week 12, LS Mean Diff vs. placebo (400 mg BID, mITT, age <45 years): 0.20 | AQLQ global score change from baseline at Week 12, LS Mean Diff vs. placebo (400 mg BID, mITT, age at asthma onset <12 years): 0.34 | AQLQ global score change from baseline at Week 12, LS Mean Diff vs. placebo (400 mg BID, mITT, age at asthma onset <18 years): 0.43 | AQLQ global score change from baseline at Week 12, LS Mean Diff vs. placebo (400 mg BID, mITT, age at asthma onset ≥12-<18 years): 2.49 | AQLQ global score change from baseline at Week 12, LS Mean Diff vs. placebo (400 mg BID, mITT, age at asthma onset ≥18-<40 years): 0.57 | AQLQ global score change from baseline at Week 12, LS Mean Diff vs. placebo (400 mg BID, mITT, age at asthma onset ≥18 years): 0.75 | AQLQ global score change from baseline at Week 12, LS Mean Diff vs. placebo (400 mg BID, mITT, age at asthma onset ≥40 years): 0.93 | AQLQ global score change from baseline at Week 12, LS Mean Diff vs. placebo (400 mg BID, mITT, age ≥45 years): 1.04 | AQLQ global score change from baseline at Week 12, LS Mean Diff vs. placebo (400 mg BID, mITT, all others than low EOS and low FeNO): 0.61 | AQLQ global score change from baseline at Week 12, LS Mean Diff vs. placebo (400 mg BID, mITT, atopic medical conditions: no): 1.08 | AQLQ global score change from baseline at Week 12, LS Mean Diff vs. placebo (400 mg BID, mITT, atopic medical conditions: yes): 0.52 | AQLQ global score change from baseline at Week 12, LS Mean Diff vs. placebo (400 mg BID, mITT, baseline ACQ-5 score >2): 0.95 | AQLQ global score change from baseline at Week 12, LS Mean Diff vs. placebo (400 mg BID, mITT, baseline ACQ-5 score ≤2): 0.43 | AQLQ global score change from baseline at Week 12, LS Mean Diff vs. placebo (400 mg BID, mITT, baseline BMI <25 kg/m^2): 1.00 | AQLQ global score change from baseline at Week 12, LS Mean Diff vs. placebo (400 mg BID, mITT, baseline BMI ≥25-<30 kg/m^2): 0.67 | AQLQ global score change from baseline at Week 12, LS Mean Diff vs. placebo (400 mg BID, mITT, baseline BMI ≥30 kg/m^2): 0.73 | AQLQ global score change from baseline at Week 12, LS Mean Diff vs. placebo (400 mg BID, mITT, baseline FEV1 reversibility <12%): 0.73 | AQLQ global score change from baseline at Week 12, LS Mean Diff vs. placebo (400 mg BID, mITT, baseline FEV1 reversibility ≥12%): 0.29 | AQLQ global score change from baseline at Week 12, LS Mean Diff vs. placebo (400 mg BID, mITT, baseline FeNO <25 ppb): 0.98 | AQLQ global score change from baseline at Week 12, LS Mean Diff vs. placebo (400 mg BID, mITT, baseline FeNO <35 ppb): 0.84 | AQLQ global score change from baseline at Week 12, LS Mean Diff vs. placebo (400 mg BID, mITT, baseline FeNO ≥25 ppb): 0.51 | AQLQ global score change from baseline at Week 12, LS Mean Diff vs. placebo (400 mg BID, mITT, baseline FeNO ≥35 ppb): 0.77 | AQLQ global score change from baseline at Week 12, LS Mean Diff vs. placebo (400 mg BID, mITT, baseline IgE <100 IU/mL): 0.90 | AQLQ global score change from baseline at Week 12, LS Mean Diff vs. placebo (400 mg BID, mITT, baseline IgE <median 210.8 IU/mL): 1.03 | AQLQ global score change from baseline at Week 12, LS Mean Diff vs. placebo (400 mg BID, mITT, baseline IgE ≥100 IU/mL): 0.59 | AQLQ global score change from baseline at Week 12, LS Mean Diff vs. placebo (400 mg BID, mITT, baseline IgE ≥median 210.8 IU/mL): 0.67 | AQLQ global score change from baseline at Week 12, LS Mean Diff vs. placebo (400 mg BID, mITT, baseline blood eosinophil level 1 <0.15 10^9/L): 0.62 | AQLQ global score change from baseline at Week 12, LS Mean Diff vs. placebo (400 mg BID, mITT, baseline blood eosinophil level 1 ≥0.15 10^9/L): 0.69 | AQLQ global score change from baseline at Week 12, LS Mean Diff vs. placebo (400 mg BID, mITT, baseline blood eosinophil level 2 <0.3 10^9/L): 0.79 | AQLQ global score change from baseline at Week 12, LS Mean Diff vs. placebo (400 mg BID, mITT, baseline blood eosinophil level 2 ≥0.3 10^9/L): 0.67 | AQLQ global score change from baseline at Week 12, LS Mean Diff vs. placebo (400 mg BID, mITT, baseline percent predicted FEV1 <68%): 0.92 | AQLQ global score change from baseline at Week 12, LS Mean Diff vs. placebo (400 mg BID, mITT, baseline percent predicted FEV1 ≥68%): 0.47 | AQLQ global score change from baseline at Week 12, LS Mean Diff vs. placebo (400 mg BID, mITT, baseline pre-bronchodilator FEV1 <2.022 L): 0.89 | AQLQ global score change from baseline at Week 12, LS Mean Diff vs. placebo (400 mg BID, mITT, baseline pre-bronchodilator FEV1 ≥2.022 L): 0.54 | AQLQ global score change from baseline at Week 12, LS Mean Diff vs. placebo (400 mg BID, mITT, baseline weight <60 kg): 1.63 | AQLQ global score change from baseline at Week 12, LS Mean Diff vs. placebo (400 mg BID, mITT, baseline weight ≥60-<90 kg): 0.70 | AQLQ global score change from baseline at Week 12, LS Mean Diff vs. placebo (400 mg BID, mITT, baseline weight ≥90 kg): −0.26 | AQLQ global score change from baseline at Week 12, LS Mean Diff vs. placebo (400 mg BID, mITT, female): 0.73 | AQLQ global score change from baseline at Week 12, LS Mean Diff vs. placebo (400 mg BID, mITT, former smokers): 1.89 | AQLQ global score change from baseline at Week 12, LS Mean Diff vs. placebo (400 mg BID, mITT, low EOS (<0.15) and low FeNO (<25)): 2.45 | AQLQ global score change from baseline at Week 12, LS Mean Diff vs. placebo (400 mg BID, mITT, male): 0.41 | AQLQ global score change from baseline at Week 12, LS Mean Diff vs. placebo (400 mg BID, mITT, never smokers): 0.65 | AQLQ global score non-responders at Week 12, number [1]: 14 | AQLQ global score non-responders at Week 12, percentage [1]: (48.3) (10/4) | participants with AQLQ improvement of at least 0.5 from baseline at Week 12 (400 mg BID, placebo 34.5%, p=0.0281): 51.7% | AQLQ global score responder analysis at Week 12, OR vs. placebo (95% CI) (400 mg TID, 95% CI 1.02, 4.89, mITT): 2.23 | AQLQ global score responders (including multiply imputed) at Week 12, number (400 mg TID, N=64, mITT): 32.9 | AQLQ global score responders (including multiply imputed) at Week 12, percentage (400 mg TID, N=64, mITT): (51.4) | AQLQ global score responders at Week 12, number [2]: 29 | AQLQ global score responders at Week 12, percentage [2]: (54.7) (28/1) % | AQLQ global score change from baseline at Week 12, LS Mean Diff vs. placebo (400 mg TID, mITT, 1 asthma exacerbation within 2 years): 0.29 | AQLQ global score change from baseline at Week 12, LS Mean Diff vs. placebo (400 mg TID, mITT, 2 asthma exacerbations within 2 years): 0.27 | AQLQ global score change from baseline at Week 12, LS Mean Diff vs. placebo (400 mg TID, mITT, Eastern Europe): 0.43 | AQLQ global score change from baseline at Week 12, LS Mean Diff vs. placebo (400 mg TID, mITT, Latin America): −0.22 | AQLQ global score change from baseline at Week 12, LS Mean Diff vs. placebo (400 mg TID, mITT, age <45 years): 0.43 | AQLQ global score change from baseline at Week 12, LS Mean Diff vs. placebo (400 mg TID, mITT, age at asthma onset <12 years): 0.46 | AQLQ global score change from baseline at Week 12, LS Mean Diff vs. placebo (400 mg TID, mITT, age at asthma onset <18 years): 0.31 | AQLQ global score change from baseline at Week 12, LS Mean Diff vs. placebo (400 mg TID, mITT, age at asthma onset ≥12-<18 years): −0.37 | AQLQ global score change from baseline at Week 12, LS Mean Diff vs. placebo (400 mg TID, mITT, age at asthma onset ≥18-<40 years): 0.25 | AQLQ global score change from baseline at Week 12, LS Mean Diff vs. placebo (400 mg TID, mITT, age at asthma onset ≥18 years): 0.24 | AQLQ global score change from baseline at Week 12, LS Mean Diff vs. placebo (400 mg TID, mITT, age at asthma onset ≥40 years): 0.29 | AQLQ global score change from baseline at Week 12, LS Mean Diff vs. placebo (400 mg TID, mITT, age ≥45 years): 0.15
